Entries after “also recorded” stand apart in the source; their conditions may differ.
How the values were obtained:
[1] = Metabolites of compound 101 with human liver microsomal fractions; assay type: in vitro ADME; settings: formed from compound 101 (10 μM), microsomal protein 1 mg/mL, NADPH, 37° C., 105 min, LCMS
Protocol: (§1) Compound 101 was contacted with microsomal fractions from Sprague Dawley rat, dog (beagle), rhesus monkey and human liver to detect and identify resulting metabolites. In particular, Compound 101 in PBS (10 μM) was incubated in a mixture of microsomal protein (1 mg/mL), EDTA (1.0 mM) and NADPH (5 mM) at 37° C. for a total of 105 min. The reaction was stopped by the addition of acetonitrile containing 0.2% formic acid (400 μL). Samples were centrifuged and the supernatant was subjected to LCMS analysis.
(§2) Compound 103, the pyridyl-N-oxide product of compound 101, was detected following contact with the microsomal fractions from all species. Compound 105, the deethylation product of compound 101, was also detected following contact with the microsomal fractions from all species. […] With human microsomal fractions, an amount of compound 107, the deethylation and pyridyl-N-oxide product of compound 101, was also detected.

[2] = Metabolites of compound 101 with rhesus monkey liver microsomal fractions and hepatocytes; assay type: in vitro ADME; settings: formed from compound 101; liver microsomal fractions (10 μM, 105 min) or cryopreserved hepatocytes
Protocol: as §1, §2
(§3) Compound 101 was also incubated with intact dog and monkey liver cells (cryopreserved hepatocytes). Following incubation, the formation of compound 109, the glucuronide adduct of compound 105, was detected.

[3] = Excretion of compound 101 and metabolites in urine and bile of bile duct cannulated rats; assay type: in vivo, Sprague Dawley rat; settings: bile duct cannulated male rats
Protocol: In addition, compound 101 was administered intravenously or orally to bile duct cannulated male Sprague Dawley rats. Urine and bile samples were collected over a period of 24 hours and analyzed by liquid chromatography/mass spectrometry. Compound 101 was detected in a small amount (<1% of the administered dose) in urine and in bile. In urine, compound 103, the pyridyl-N-oxide of compound 101, was detected. Five metabolites, compounds 103, 105, 107, 109 and 111, were all detected in bile excretions; compound 111 was detected in a trace amount in bile. A proposed metabolic pathway for compound 101 is provided at FIG. 3.
Overall, N-oxidation and O-deethylation occurred to similar extents. The O-deethyl metabolite was detected mainly as a glucuronide conjugate, compound 109. […] Only trace amounts of the glucuronide of the N-oxidized O-deethyl metabolite, compound […], were detected. The detected metabolites, and the relative amounts thereof, in urine and bile agree with the metabolites detected with rat liver microsomal fractions and rat hepatocytes in vitro as discussed above.

[4] = tested on: any cytochrome p450 isoform, including 3A4; assay: Inhibition or induction of cytochrome p450 isoforms by compound 101; assay type: in vitro ADME, human
[5] = Metabolites of compound 101 with dog liver microsomal fractions and hepatocytes; assay type: in vitro ADME, dog (beagle); settings: formed from compound 101; liver microsomal fractions (10 μM, 105 min) or cryopreserved hepatocytes
Protocol: as §1, §2, §3

[6] = Metabolites of compound 101 with rat liver microsomal fractions; assay type: in vitro ADME, Sprague Dawley rat; settings: formed from compound 101 (10 μM), 105 min
Protocol: as §1, §2

[7] = after compound 101 intravenously or orally, 24 hours, LC/MS
[8] = compound 101 intravenously or orally, 24 hours collection

Structure (SMILES)	Metabolic Forms of Compound 101: Human [1]	Metabolic Forms of Compound 101: Monkey [2]	Detection in bile [3, 7]	Metabolic Forms of Compound 101: Rat (in vivo), excreta in which detected [3, 8]	Amount detected in urine and in bile, of the administered dose (Rat in vivo) [3, 8]	Inhibition or induction of cytochrome p450 isoforms [4]	Metabolic Forms of Compound 101: Dog [5]	Metabolic Forms of Compound 101: Rat (in vitro) [6]	Detection in urine [3, 7]
C[C@H](c1nc2ncccc2c(=O)n1-c1ccc(O)cc1)N(Cc1ccc[n+]([O-])c1)C(=O)Cc1ccc(OC(F)(F)F)cc1 [Compound 107]	detected; also recorded: minor	minor	detected; also recorded: significant amounts	bile	–	–	–	–	–
CCOc1ccc(-n2c([C@@H](C)N(Cc3cccnc3)C(=O)Cc3ccc(OC(F)(F)F)cc3)nc3ncccc3c2=O)cc1 [Compound 101]	–	–	–	–	<1%	little or no inhibition or induction	–	–	–
C[C@H](c1nc2ncccc2c(=O)n1-c1ccc(O)cc1)N(Cc1cccnc1)C(=O)Cc1ccc(OC(F)(F)F)cc1 [Compound 105]	detected; also recorded: minor	detected; also recorded: minor	detected	bile	–	–	detected; also recorded: minor	approximately equal amounts; also recorded: major	–
CCOc1ccc(-n2c([C@@H](C)N(Cc3ccc[n+]([O-])c3)C(=O)Cc3ccc(OC(F)(F)F)cc3)nc3ncccc3c2=O)cc1 [Compound 103]	more compound 103 than compound 105; also recorded: major	more compound 103 than compound 105; also recorded: major	detected	urine & bile	–	–	more compound 103 than compound 105; also recorded: major	approximately equal amounts; also recorded: major	detected
C[C@H](c1nc2ncccc2c(=O)n1-c1ccc(OC2OC(C(=O)O)C(O)C(O)C2O)cc1)N(Cc1ccc[n+]([O-])c1)C(=O)Cc1ccc(OC(F)(F)F)cc1 (stereo partly shown) [Compound 111]	–	–	trace amount	bile (traces)	–	–	–	–	–
C[C@H](c1nc2ncccc2c(=O)n1-c1ccc(OC2OC(C(=O)O)C(O)C(O)C2O)cc1)N(Cc1cccnc1)C(=O)Cc1ccc(OC(F)(F)F)cc1 (stereo partly shown) [Compound 109]	–	detected; also recorded: minor	detected; also recorded: trace amounts	bile	–	–	detected; also recorded: minor	–	–

Reference: patent publication US20040242498A1, “CXCR3 antagonists” (priority 2003, published 2004)
